The results in this text go back to patent US12446582B2 (priority 2018, dated 2025).

Entries after “also recorded” stand apart in the source; their conditions may differ. Where two headings read alike, the source gives them in different places.

This test has as its system Fusarium pseudograminearum.
[1] abbreviates: average of 5 trials, compared to untreated T1.
[2] abbreviates: average of 5 trials, compared to untreated T1, listed as T2.
Setting [3] is: average of 5 trials, untreated T1 = 100.00.

Method: 5 wheat trial locations were selected across the main wheat growing areas of Australia. All five sites have a history of crown rot and high stubble load coming out of susceptible rotation crop. Soil samples were taken to confirm the pathogen pressure. The seeds were treated with a Rotostat Seed Treater with 800 ml slurry volume per 100 kg of seeds. Planting for the trials took place between 2 June and 14 June using a 6 to 8 row planter. The number of plants was counted 35-65 days after sowing on 2×5 m row. The number of wheat plants with white heads per plot was assessed at full ripe and recorded as % compared to the untreated plants which were taken as reference. Yield grain data was taken at the end of the season.

For the compound `O=C(NC1CCC1c1ccc(Cl)cc1Cl)c1cccnc1C(F)(F)F` (stereo not drawn) [Compound 1], under setting [1], the “Final emergence counts % increase compared to T1” value is 7.52%, the “Plot yields % increase compared to T1” value is listed as 26% and the “White heads % reduction compared to T1” value is 34%. Further, under setting [2], the “Plot yields % increase compared to T1” value is on record as 26.32% and the “White heads % reduction compared to T1” value worked out at 34.20%. In addition, the “White heads Average” value (average of 5 trials, % compared to untreated T1 = 100.00) was found to be 66.80%. For the same compound, under setting [3], the “Final emergence counts Average” value is reported as 107.52 and the “Plot yields Average” value is listed as 126.32. Moreover, the “White heads AR0T020” value (trial AR0T020, Merredin, WA, variety Cobra, seed treatment, % compared to untreated T1 = 100.00, at full ripe) amounted to 32.86%. Besides, the “Plot yields AR0T020” value (trial AR0T020, Merredin, WA, variety Cobra, seed treatment, full plot harvest, untreated T1 = 100.00) is 127.83. In addition, for the setting “trial AR0T020, Merredin, WA, variety Cobra, seed treatment, untreated T1 = 100.00”, the “Final emergence counts AR0T020” value came out at 101.87. For the same compound, where the note is “trial AR0T021, Tammin, WA, variety Cobra, seed treatment, % compared to untreated T1 = 100.00, at full ripe”, the “White heads AR0T021” value is given as 28.45%. Further, the “Plot yields AR0T021” value (trial AR0T021, Tammin, WA, variety Cobra, seed treatment, full plot harvest, untreated T1 = 100.00) is reported as 107.62. The “Final emergence counts AR0T021” value (trial AR0T021, Tammin, WA, variety Cobra, seed treatment, untreated T1 = 100.00) is 118.36. Besides, the “White heads DL0T013” value (trial DL0T013, Bunnaloo, NSW, variety Aurora (Durum), seed treatment, % compared to untreated T1 = 100.00, at full ripe) is given as 92.59%. Under “trial DL0T013, Bunnaloo, NSW, variety Aurora (Durum), seed treatment, full plot harvest, untreated T1 = 100.00”, the “Plot yields DL0T013” value was determined as 116.90. For the same compound, where the note is “trial DL0T013, Bunnaloo, NSW, variety Aurora (Durum), seed treatment, untreated T1 = 100.00”, the “Final emergence counts DL0T013” value amounted to 100.80. Also, the “White heads GS0T007” value (trial GS0T007, Redhill, SA, variety Saintly (Durum), seed treatment, % compared to untreated T1 = 100.00, at full ripe) amounted to 74.52%. Moreover, the “Plot yields GS0T007” value (trial GS0T007, Redhill, SA, variety Saintly (Durum), seed treatment, full plot harvest, untreated T1 = 100.00) was 162.86. Also, the “Final emergence counts GS0T007” value (trial GS0T007, Redhill, SA, variety Saintly (Durum), seed treatment, untreated T1 = 100.00) is 113.09. Further, the “White heads N10T669” value (trial N10T669, Bellata, NSW, variety Lillaroi (Durum), seed treatment, % compared to untreated T1 = 100.00, at full ripe) is 105.57%. Moreover, for the setting “trial N10T669, Bellata, NSW, variety Lillaroi (Durum), seed treatment, full plot harvest, untreated T1 = 100.00”, the “Plot yields N10T669” value amounted to 116.41. In addition, the “Final emergence counts N10T669” value (trial N10T669, Bellata, NSW, variety Lillaroi (Durum), seed treatment, untreated T1 = 100.00) is recorded as 103.48. Further, under “wheat seed treatment, compared to commercial treatments T3-T5”, the “yield increase compared to other commercial treatments (in words)” value is “more than double; also recorded: more than twice as much”.
